Data from patent US20190380980A1, “A Method For Treating Peripheral Inflammatory Disease” (Dublin City University, priority 2015, published 2019).

test system: Bone marrow derived dendritic cells (BMDCs); assay: In vitro screening of oleamide and analogues: cytokine secretion by LPS-stimulated BMDCs; assay type: cell-based, Balb/c mice; conditions: Table 3; BMDCs, 25 uM compound 1 hour prior to 100 ng/ml LPS, supernatants after 24 hours
Procedure: FIG. 2: In vitro results: Bone marrow dendritic cells (BMDCs) were cultured in vitro and plated at 1×10^6 cells per ml. The BMDCs were conditioned with 25 uM oleamide 1 hour prior to stimulation with 100 ng/ml LPS (E. coli serotype R515). After 24 hours, the supernatants were removed and analysed for cytokine levels of IL-12p40, IL-12p70, IL-23 and TNF-alpha using specific immunoassays. (n=9)
FIGS. 4(A) to 4(G): In vitro Results: Bone marrow dendritic cells (BMDCs) were cultured in vitro and plated at 1×10^6 cells/ml. The BMDCs were conditioned with oleamide or its family of analogues at a concentration of 25 uM 1 hour prior to stimulation with 100 ng/ml LPS (E. coli serotype R515). After 24 hours, the supernatants were removed and analysed for levels of IL-12p40, IL-12p70, IL-23 and TNF-alpha using specific immunoassays. (n=9)
(§1) FIG. 6: Bone marrow-derived dendritic cells (BMDCs) were cultured in vitro and plated at 1×10^6 cells/ml. The BMDCs were conditioned with analogues of oleamide (compounds 19.2, 20.1, 36.2, 37.1 or 39.1) at a concentration of 25 μM 1 hour prior to stimulation with 100 ng/ml LPS (E. coli serotype R515). After 24 hours, the supernatants were removed and analysed for levels of IL-12p40, IL-12p70, IL-23 and TNF-alpha using specific immunoassays. (n=9)
as §1, with “7:” for “6:”, “18.2, 21.2, 22.2, 23.2, 33.1” for “19.2, 20.1, 36.2, 37.1”, “34.1 in panel A and 35.1, 38.1, 50.2 in panel B)” for “39.1)”
The concentration of cytokines in cell supernatants was determined using ELISA Duoset kits from R&D Systems in accordance with the manufacturers' instructions. Briefly, 100 μl/well of capture antibody (diluted to the appropriate concentration in PBS) was added to an ELISA plate (Nunc) and incubated overnight at room temperature. Plates were then washed three times with Wash Buffer (PBS+0.05% Tween-20) and blocked by adding 300 μl of Blocking buffer (1% (w/v) BSA/PBS) for a minimum of 1 h at room temperature. The washing step was repeated and 100 μl of samples and standards (diluted to appropriate concentrations) were added per well, in triplicate. Plates were then incubated at 2-4° C. overnight. The next day, plates were washed again and 100 μl of the biotinylated detection antibody was added to each well and incubated for 2 hours at room temperature. 100 μl of Streptavidin-horseradish-peroxidase (R&D Systems) was then added to each well, following another wash step. Plates were incubated for 20 min at room temperature. After the last washing step, 100 μl of tetramethylbenzidine (BD Biosciences) was added to each well and plates were left in the dark for 20 minutes or until a blue colour developed. Colour development was stopped by adding 50 μl of 1M sulphuric acid (Sigma-Aldrich) to the wells. The optical density was determined at 450 nm, using a VersaMax™ microplate reader (Molecular Devices). For each set of samples, a standard curve was generated and the values of unknown samples were calculated from the standard curve.
Bone marrow derived dendritic cells (BMDCs) were cultured as follows:
(Day 1) Bone marrow cells were harvested from the femur and tibia of Balb/c female mice by flushing the bone with RPMI 1640 complete media [supplemented with 10% foetal calf serum and 2% Penicilin-Steptomycin (Life Technologies, Ireland)] using a 27 gauge needle attached to a 10 ml syringe. The bone marrow cells were collected into a 50-ml Falcon tube and centrifuged at 1200 RPM for 5 minutes. […]

Row | SMILES | +LPS IL-12p40 | +LPS IL-12p70 | +LPS IL-23 | +LPS TNF-α
1 | CCCCCCCC/C=C\CCCCCCCC(=O)NCc1ccccc1 [Compound 18-2, N-benzyloleamide] | ↑ | ↑ | → | →
2 | CCCCCCCC/C=C\CCCCCCCC(=O)Nc1ccc(N(C)C)cc1 [Compound 19-2, N-(4-(dimethylamino)phenyl)oleamide] | → | → | → | →
3 | CCCCCCCC/C=C\CCCCCCCC(=O)Nc1ccc(N(CC)CC)cc1 [Compound 20-1, N-(4-(diethylamino)phenyl)oleamide] | → | ↓ | → | →
4 | CCCCCCCC/C=C\CCCCCCCC(=O)NCc1ccc(OC)cc1 [Compound 21-2, N-(4-methoxybenzyl) oleamide] | ↑ | ↑ | ↓ | →
5 | CCCCCCCC/C=C\CCCCCCCC(=O)NCc1cccc(OC)c1 [Compound 22-2, N-(3-methoxybenzyl) oleamide] | ↑ | ↑ | ↓ | →
6 | CCCCCCCC/C=C\CCCCCCCC(=O)NCc1ccccc1OC [Compound 23-2, N-(2-methoxybenzyl) oleamide] | ↑ | → | ↓ | →
7 | CCCCCCCC/C=C\CCCCCCCC(=O)NCc1ccc(C(F)(F)F)cc1 [Compound 33-1, N-(4-(trifluoromethyl)benzyl)oleamide] | ↑ | ↑ | → | →
8 | CCCCCCCC/C=C\CCCCCCCC(=O)NCc1cccc(C(F)(F)F)c1 [Compound 34-1, N-(3-(trifluoromethyl)benzyl)oleamide] | ↑ | → | ↓ | →
9 | CCCCCCCC/C=C\CCCCCCCC(=O)NCc1ccccc1C(F)(F)F [Compound 35-1, N-(2-(trifluoromethyl)benzyl)oleamide] | → | → | ↓ | →
10 | CCCCCCCC/C=C\CCCCCCCC(=O)Nc1ccc2ccccc2n1 [Compound 36-2, N-(quinolin-2-yl) oleamide] | ↓ | ↓ | ↓ | ↓
11 | CCCCCCCC/C=C\CCCCCCCC(=O)Nc1ccccn1 [Compound 37-1, N-(pyridin-2-yl) oleamide] | → | → | ↓ | ↓
12 | CCCCCCCC/C=C\CCCCCCCC(=O)Nc1cccnc1 [Compound 38-1, N-(pyridin-3-yl) oleamide] | ↓ | → | ↓ | →
13 | CCCCCCCC/C=C\CCCCCCCC(=O)Nc1ccncc1 [Compound 39-1, N-(pyridin-4-yl) oleamide] | ↓ | ↓ | → | →
14 | NC(=O)COCCCCOc1ccccc1 [Compound 50-2, 2-(4-phenoxybutoxy) acetamide] | → | → | ↓ | →
15 | NC(=O)COCCCOCc1ccccc1 [Compound 51-2, 2-(3-(benzyloxy)propoxy) acetamide] | ↓ | ↓ | ↓ | →
16 | CCCCCCCC/C=C\CCCCCCCC(N)=O [Ole, 9(Z)-Octadecenamide] | ↓ | ↓ | ↓ | →

same assay, conditions: summary statement on the cytokine tables

Row | SMILES | immunomodulatory effect
17 | CCCCCCCC/C=C\CCCCCCCC(N)=O [Ole, 9(Z)-Octadecenamide] | immunomodulatory effect
18 | CCCCC/C=C\C/C=C\C/C=C\C/C=C\CCCC(N)=O [arachidonamide] | immunomodulatory effect
19 | CCCCC/C=C\C/C=C\CCCCCCCC(N)=O [linoleamide] | immunomodulatory effect
20 | CC/C=C\C/C=C\C/C=C\CCCCCCCC(N)=O [linolenamide] | immunomodulatory effect
21 | CCCCCCCCCCCCCCCC(N)=O [palmitamide] | immunomodulatory effect
22 | CCCCCC/C=C\CCCCCCCC(N)=O [palmitoleamide] | immunomodulatory effect
23 | CCCCCCCCCCCCCCCCCC(N)=O [stearamide] | immunomodulatory effect

test system: BV2 murine microglial cells; assay: not given; conditions: lipopolysaccharide-stimulated neuronal microglia; cited from earlier work

Row | SMILES | activation of p38, ERK, PI3-kinase/Akt, ROS accumulation and NF-κB activation | pro-inflammatory mediators
24 | CCCCCCCC/C=C\CCCCCCCC(N)=O [Ole, 9(Z)-Octadecenamide] | blocks activation | suppressor of pro-inflammatory mediators
